Among the data in PubChem BioAssay (NCI) are TGI and GI50 values, retold here.

The structures appear in SMILES notation. Values joined by “and” are separate entries in the source; they are usually repeats but may differ in a detail not shown here. Equal values may be shown once.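 Five compound concentrations were applied to cells in 96-well plates for 48 hours; endpoints were derived by simple linear interpolation of the resulting dose-response curve. The concentration for 50% growth inhibition is given as GI50. TGI marks complete inhibition of growth.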 Bounds are passed on as bounds.

Holding throughout (test): NCI-60 cell line screen, 48 h
Test [1] concerns ACHN renal.
Test [2] relates to OVCAR-3 ovarian.
For test [3], the system named is CCRF-CEM leukemia.
In test [4] the test system is MALME-3M melanoma.
For test [5], the system named is RPMI-8226 leukemia.
The test system of test [6] is PC-3 prostate.
The test system of test [7] is UACC-257 melanoma.
For test [8], the system named is SF-295 CNS.
Test [9] relates to BT-549 breast.

With `Cc1ccc(C(=O)N(C2CCCCC2)C2CCCCC2)cc1N=NN(C)C`, the TGI in [1] is 22.4 µM; in [2], 19.2 µM; in [3] it was 54.7 µM; in test [4] it was 31 µM; in test [5] it was more than 100 µM; in test [6], 22.2 µM. The figures for the TGI in [7], in [8] and in test [9] were 28 µM, 23.5 µM and 26.8 µM, respectively.

Regarding `CC(=O)OC[C@H]1O[C@@H](O[C@H]2[C@H](OC(C)=O)C=CO[C@@H]2COC(C)=O)C(OC(C)=O)[C@H]2OC(C)(C)O[C@H]21` (some centres undefined), the TGI in test [1], in test [2], in [3], in test [4], in test [6] and in test [7] was more than 100 µM in each case. Further, the TGI in test [8] and in test [9] was more than 100 µM in each case.

For `C=CC[C@H]1[C@@H](O[Si](C)(C)C(C)(C)C)[C@H](n2ccc(=O)[nH]c2=O)O[C@@H]1CO[Si](C)(C)C(C)(C)C`, the TGI was 5.41 µM in test [1]; 3.12 µM in test [2]; 16 µM in test [3]; 9.04 µM in [4]; 6.03 µM in test [5]; 5.89 µM in [6]. The results for the TGI in test [7], in test [8] and in test [9] were 5.34 µM, 3.93 µM and 7.67 µM, respectively.

Consider `Brc1ccc(N=NN2CCCCC2)cc1`, for which the TGI in [1] was more than 100 µM; in [2], more than 100 µM; in test [3], 56.9 µM; in test [5], 30.9 µM; in test [6], more than 100 µM; in [7] it was more than 100 µM. The TGI in [8] and in test [9] was more than 100 µM in each case.

Regarding `OC(C1CCC=NN1C(O)(C(F)(F)F)C(F)(F)F)(C(F)(F)F)C(F)(F)F` (centres undefined), the TGI in test [1], in test [2], in [3], in test [4], in test [5] and in test [6] was more than 10 µM each time. Moreover, the TGI in test [7], in [8] and in [9] was more than 10 µM each time.

Consider `CC(C)(CN)CN`, for which the TGI in test [1], in [2], in [3], in test [4], in [5] and in test [6] was more than 100 µM in each case. Moreover, the TGI in [7], in test [8] and in test [9] was more than 100 µM in each case.

For `Oc1ccc(/C=C\c2nnc(/C=C\c3ccc(O)c(O)c3)s2)cc1O`, the TGI in test [1] turned out to be 15.2 µM; in test [2], 16.3 µM; in test [3], 2.16 µM; in [4], 17.7 µM; in test [6] it was 29.3 µM; in test [7], 35.7 µM. Moreover, the TGI stood at 24.8 µM in test [8] and 40.6 µM in test [9].

In the case of `CCNC(=O)Nc1cccc(C)n1`, the TGI in [1], in [2], in [3], in [4], in test [6] and in test [7] was more than 100 µM in each case. Further, the TGI in [8] and in [9] was more than 100 µM throughout.

As for `COc1ccc(N2C=Nn3c(nc4sc(C)c(C)c4c3=O)C2)cc1`, the TGI in [1], in test [3], in [4], in test [5], in test [6] and in test [7] was more than 100 µM throughout. For the same molecule, the TGI in test [8] and in test [9] was more than 100 µM throughout.

Consider `Cn1c(=O)c2c(nc(NCCCCl)n2CC(=O)O)n(C)c1=O`, for which the TGI in test [1], in [2], in test [3], in test [5], in test [6] and in [7] was more than 100 µM each time. Moreover, the TGI in test [8] and in test [9] was more than 100 µM in each case.

On to `CC(C)Oc1c(-c2c(OC(C)C)c(=O)c2=O)c(=O)c1=O`, for which the TGI in test [1] was more than 100 µM; in test [3], more than 100 µM; in [4], 4 µM; in [5], more than 71.8 µM; in [6], more than 100 µM; in test [7], more than 100 µM. Also, the figures for the TGI in [8] and in test [9] were more than 100 µM and more than 61.3 µM, respectively.

Turning to `O=C(CSc1nc2ccccc2[nH]1)Nc1ccc(-c2nc3ccccc3s2)c(Cl)c1`, the GI50 is 4.52 µM in [1]; 2.17 µM in test [2]; more than 100 µM in [3]; 2.59 µM in [4]; 2.83 µM in [6]; 4.08 µM in [7]. The results for the GI50 in [8] and in test [9] were 3.63 µM and 7.69 µM, respectively. For the same molecule, the TGI in test [1] is 57.4 µM; in [2], 4.55 µM; in test [3] it was more than 100 µM; in [4] it was 8.92 µM; in test [6], more than 100 µM; in [7], more than 100 µM. For the same molecule, the TGI in test [8] and in test [9] was more than 100 µM in each case.

`COc1cccc(N2C(=O)C3c4[nH]c5ccccc5c4C4c5ccccc5CCC4C3C2=O)c1` (centres undefined): the TGI is more than 10 µM in [1]; more than 10 µM in test [2]; more than 10 µM in test [3]; more than 9.13 µM in test [4]; more than 10 µM in test [5]; more than 10 µM in test [6]. Further, the TGI in test [8] and in [9] was more than 10 µM throughout.

Turning to `CC(C)CCCC(C)[C@H]1CCC2[C@@H]3CCC4Cc5nc6c(nc5C[C@]4(C)C3CC[C@@]21C)CC1CC[C@@H]2C(C[C@@H](O)[C@@]3(C)C2C[C@@H]2OC4(CCC(C)CO4)C(C)[C@@H]23)[C@@]1(C)C6` (some centres undefined), the TGI in test [1], in test [2], in [3], in [5], in test [6] and in test [7] was more than 100 µM in each case. Besides, the TGI in test [8] and in [9] was more than 100 µM each time.

For the molecule `CSc1c(C(=O)Nc2ccccc2)c(N)nn1-c1ccccc1`, the TGI in [2], in test [3], in test [4], in test [5], in test [6] and in [7] was more than 100 µM in each case. Further, the TGI in test [9] was more than 100 µM.

On to `CC(C)C[C@H](NC(=O)[C@H](Cc1cccc2ccccc12)NC(=O)N1CCOCC1)B(O)O`, for which the TGI is more than 100 µM in [1]; 0.00171 µM in test [2]; 0.00306 µM and < 0.0169 µM in test [4]; 0.00618 µM in [5]; 0.0191 µM and < 0.0235 µM in [6]; 0.00495 µM in test [7]. The GI50 is 0.000519 µM in [2]; 0.000373 µM in test [4]; 0.000359 µM in [5]; 0.00473 µM in [6]; 0.00172 µM in test [7]; 0.00039 µM in [9].

Consider `CCC(CCCN)Nc1cc(OC)cc2cccnc12` (centres undefined), for which the TGI is more than 100 µM in test [1]; more than 100 µM in test [2]; more than 100 µM in test [3]; more than 100 µM in test [4]; more than 100 µM in [6]; 62.8 µM in [7]. Also, the TGI in test [8] and in test [9] was more than 100 µM throughout.

As for `C=CC(=O)N1C/C(=C\c2ccc(N(C)C)cc2)C(=O)/C(=C/c2ccc(N(C)C)cc2)C1`, the TGI in [1], in test [2], in test [4], in test [6], in test [7] and in [8] was more than 100 µM in each case. The same molecule returned a TGI in [9] of more than 100 µM.

Regarding `COC1C(O)CC(OC2C(C)OC(Oc3cc(O)c4c(O)c5c(cc4c3)C[C@@H]([C@H](OC)C(=O)[C@@H](O)[C@@H](C)O)[C@H](OC3CC(OC4CC(OC6CC(C)(O)C(O)C(C)O6)C(O)C(C)O4)C(O)C(C)O3)C5=O)CC2OC(C)=O)OC1C` (some centres undefined), the TGI in test [1], in test [2], in test [3], in test [4], in test [5] and in test [6] was more than 100 µM in each case. In [9], this molecule showed a TGI of more than 100 µM.

For `COc1ccc2c(c1)O[C@@H]1C(O)Oc3cc(OC)c(OC)cc3[C@]1(O)C2=O` (some centres undefined), the TGI in test [1], in test [2], in test [3], in test [5], in [6] and in [7] was more than 100 µM each time. The TGI in test [8] was more than 100 µM; in test [9], 91 µM.

On to `Cc1ccc2c(=O)cc(-c3csc4ccccc34)[nH]c2n1`, for which the TGI was 12.9 µM in test [1]; less than 0.01 µM in test [2]; 1.59 µM in test [3]; 54.6 µM in test [4]; 15 µM in test [5]; 0.0198 µM in test [6]. The TGI was 0.0101 µM in [8] and 22.3 µM in test [9].

As to `CCC(C)[C@H](NC(=O)N[C@H](C)c1ccccc1)C(=O)OC` (some centres undefined), the TGI in test [1], in test [2], in [3], in [5], in [6] and in [7] was more than 100 µM each time. Moreover, the TGI in test [8] and in test [9] was more than 100 µM throughout.
